Measured values taken from ChEMBL document CHEMBL1201862, “PubChem BioAssay data set” (2004).
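The compound was tested at five concentrations on cells cultured in 96-well plates, with a 48-hour exposure period. GI50 = concentration required for 50% inhibition of growth.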 Activity calls are given as the source filed them. No stated cut-off is given here; in the data, active = GI50 up to about 1.1 µM and inactive = higher.

Key:
Test in all cases: growth of human tumour cells (NCI), 48 h
HCT-116 = system: HCT-116
HOP-92 = system: HOP-92
LOX IMVI = system: LOX IMVI
Malme-3M = system: Malme-3M
OVCAR-3 = system: OVCAR-3
OVCAR-5 = system: OVCAR-5
RPMI-8226 = system: RPMI-8226
RXF 393 = system: RXF 393
SF-268 = system: SF-268
SK-MEL-2 = system: SK-MEL-2
SK-MEL-5 = system: SK-MEL-5
SN12C = system: SN12C
UACC-257 = system: UACC-257
UACC-62 = system: UACC-62
ACHN = system: ACHN
M14 = system: M14
MDA-MB-435 = system: MDA-MB-435
PC-3 = system: PC-3
T47D = system: T47D
TK-10 = system: TK-10

Measured: GI50

CCCCCCCCCCCC1CCCC(C)N1 (stereo not given)
inactive: HCT-116 36.8 µM | HOP-92 17.7 µM | LOX IMVI 18.2 µM | Malme-3M 90.4 µM | OVCAR-3 72.9 µM | OVCAR-5 80 µM | RPMI-8226 23.2 µM | RXF 393 35.8 µM | SF-268 67.9 µM | SK-MEL-2 72.1 µM | SK-MEL-5 36.4 µM | SN12C 53.1 µM | UACC-257 45.8 µM | UACC-62 36.7 µM

CCP(=O)(CC)C(Cl)(Cl)C(=O)NC
inactive: ACHN > 100 µM | HCT-116 > 100 µM | HOP-92 > 100 µM | LOX IMVI > 100 µM | M14 > 100 µM | MDA-MB-435 > 100 µM | OVCAR-3 > 100 µM | OVCAR-5 > 100 µM | PC-3 > 100 µM | RPMI-8226 > 100 µM | SK-MEL-2 > 100 µM | SK-MEL-5 > 100 µM | SN12C > 100 µM | T47D > 100 µM | TK-10 > 100 µM | UACC-257 > 100 µM

CCOC(=O)CCC(NC(=O)OCc1ccccc1)C(=O)NC(CCC(=O)OCC)C(=O)NC(CCC(=O)OCC)C(=O)NC(CCC(=O)OCC)C(=O)NC(CCC(=O)OCC)C(=O)NC(CCC(=O)OCC)C(=O)NC(CCC(=O)OCC)C(=O)OCC (stereo not given)
inactive: ACHN > 100 µM | HCT-116 > 100 µM | LOX IMVI > 100 µM | M14 > 100 µM | MDA-MB-435 > 100 µM | Malme-3M 90.6 µM | OVCAR-3 86.9 µM | OVCAR-5 > 100 µM | PC-3 > 100 µM | RPMI-8226 > 100 µM | SF-268 > 100 µM | SK-MEL-2 > 100 µM | SK-MEL-5 > 100 µM | SN12C > 100 µM | T47D > 100 µM | TK-10 > 100 µM | UACC-257 > 100 µM | UACC-62 > 100 µM

C/C(=C/C(=O)N(C)c1ccccc1Cl)O[Si](C(C)C)(C(C)C)C(C)C
inactive: ACHN > 10 µM | HCT-116 17.8 µM | HOP-92 16.1 µM | LOX IMVI 18.7 µM | M14 27.5 µM | MDA-MB-435 32.1 µM | Malme-3M 23.9 µM | OVCAR-3 18.2 µM | OVCAR-5 18.2 µM | RPMI-8226 24.8 µM | RXF 393 17.3 µM | SF-268 21.8 µM | SK-MEL-5 16.4 µM | SN12C 17 µM | T47D 31.3 µM | TK-10 33.5 µM | UACC-257 24.8 µM

CN1CCC2(CC1)C(=O)N(N1CCCCCC1)C(=O)N2c1ccccc1
inactive: ACHN > 100 µM | HCT-116 18.2 µM | LOX IMVI > 100 µM | M14 > 100 µM | MDA-MB-435 > 100 µM | Malme-3M > 100 µM | OVCAR-3 > 100 µM | OVCAR-5 > 100 µM | PC-3 77.8 µM | RPMI-8226 > 100 µM | RXF 393 31.3 µM | SF-268 > 100 µM | SK-MEL-2 > 100 µM | SK-MEL-5 > 100 µM | SN12C > 100 µM | T47D > 100 µM | TK-10 > 100 µM | UACC-257 > 100 µM | UACC-62 96.6 µM

O=c1c(-c2ccccc2)c(SCCCN2CCN(c3cccc(Cl)c3)CC2)n(-c2ccccc2)c(=S)n1-c1ccccc1
inactive: ACHN > 100 µM | HOP-92 > 100 µM | LOX IMVI > 100 µM | MDA-MB-435 16.8 µM | Malme-3M > 100 µM | OVCAR-3 > 100 µM | OVCAR-5 > 100 µM | PC-3 > 100 µM | RPMI-8226 > 100 µM | RXF 393 > 100 µM | SK-MEL-2 > 100 µM | SK-MEL-5 > 100 µM | TK-10 > 100 µM | UACC-257 > 100 µM | UACC-62 > 100 µM

CC1=C(Oc2ccccc2)C(CCC(=O)O)c2c(O)cc(Cl)c(O)c21 (stereo not given)
inactive: HCT-116 > 100 µM | HOP-92 > 100 µM | LOX IMVI > 100 µM | M14 > 100 µM | OVCAR-3 > 100 µM | RPMI-8226 > 100 µM | RXF 393 > 100 µM | SF-268 > 100 µM | SK-MEL-2 > 100 µM | SK-MEL-5 > 100 µM | SN12C > 100 µM | TK-10 > 100 µM | UACC-257 > 100 µM

CN(C)Cc1cc(/C=C/C(=O)c2ccc(Cl)c(Cl)c2)cc(CN(C)C)c1O
inactive: ACHN 12.8 µM | HCT-116 12.8 µM | M14 13 µM | MDA-MB-435 5.32 µM | Malme-3M 9.59 µM | OVCAR-3 10.3 µM | OVCAR-5 12.5 µM | PC-3 12.4 µM | RPMI-8226 13.4 µM | RXF 393 11 µM | SF-268 10.8 µM | SK-MEL-2 14 µM | SK-MEL-5 11.7 µM | SN12C 13.5 µM | T47D 11 µM | TK-10 12.4 µM | UACC-257 12.1 µM | UACC-62 14.3 µM
